Data reported in ChEMBL document CHEMBL1146830, “Synthesis and biological evaluation of nonpeptide integrin antagonists containing spirocyclic scaffolds” (Bioorg Med Chem Lett, 2004).

Assays:
[1] = molecular target: Integrin alpha-V/beta-3 (Homo sapiens); assay: Evaluated in an functional alpha-v beta-3 antagonism assay, involving adhesion of beta-3-transfected 293 cells to fibrinogen (alpha-v beta-3 293 beta3)
[2] = molecular target: Integrin alpha-V/beta-3 and alpha-IIb/beta 3 (Homo sapiens, UniProt P05106+P06756+P08514); assay: Inhibition of platelet aggregation in human platelet-rich plasma alpha IIb beta-3 integrin to assess the selectivity for the alpha-v beta-3 over the GPIIb/IIIa integrin receptor
Integrin alpha-5/beta-1 = Integrin alpha-5/beta-1 (Homo sapiens, UniProt P05556+P08648); assay: Alpha-5 beta-1 antagonism using an ELISA assay; type: functional
Chain of Integrin alpha-5/beta-1 (P05556 21-798 limits assumed): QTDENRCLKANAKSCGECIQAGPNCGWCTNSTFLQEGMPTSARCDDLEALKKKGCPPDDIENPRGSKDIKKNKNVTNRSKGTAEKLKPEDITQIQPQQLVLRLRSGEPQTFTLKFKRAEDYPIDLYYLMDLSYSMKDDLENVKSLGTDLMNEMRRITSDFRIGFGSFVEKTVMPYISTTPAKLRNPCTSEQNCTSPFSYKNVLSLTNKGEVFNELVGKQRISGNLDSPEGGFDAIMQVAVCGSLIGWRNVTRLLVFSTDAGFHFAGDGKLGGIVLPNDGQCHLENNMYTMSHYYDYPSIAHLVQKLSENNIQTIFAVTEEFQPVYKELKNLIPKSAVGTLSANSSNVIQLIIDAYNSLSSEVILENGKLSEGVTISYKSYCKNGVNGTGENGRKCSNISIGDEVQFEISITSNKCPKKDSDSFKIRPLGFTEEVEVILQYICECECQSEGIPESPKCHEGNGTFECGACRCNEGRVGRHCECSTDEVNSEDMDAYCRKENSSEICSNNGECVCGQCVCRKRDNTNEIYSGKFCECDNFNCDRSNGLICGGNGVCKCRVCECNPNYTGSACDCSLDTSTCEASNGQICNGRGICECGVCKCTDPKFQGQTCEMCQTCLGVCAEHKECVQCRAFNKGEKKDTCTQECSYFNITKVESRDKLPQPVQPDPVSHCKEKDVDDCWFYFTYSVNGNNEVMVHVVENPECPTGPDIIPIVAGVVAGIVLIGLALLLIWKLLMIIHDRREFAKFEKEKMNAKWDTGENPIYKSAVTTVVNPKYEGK
Chain of Integrin alpha-5/beta-1 (P08648 42-894 limits assumed): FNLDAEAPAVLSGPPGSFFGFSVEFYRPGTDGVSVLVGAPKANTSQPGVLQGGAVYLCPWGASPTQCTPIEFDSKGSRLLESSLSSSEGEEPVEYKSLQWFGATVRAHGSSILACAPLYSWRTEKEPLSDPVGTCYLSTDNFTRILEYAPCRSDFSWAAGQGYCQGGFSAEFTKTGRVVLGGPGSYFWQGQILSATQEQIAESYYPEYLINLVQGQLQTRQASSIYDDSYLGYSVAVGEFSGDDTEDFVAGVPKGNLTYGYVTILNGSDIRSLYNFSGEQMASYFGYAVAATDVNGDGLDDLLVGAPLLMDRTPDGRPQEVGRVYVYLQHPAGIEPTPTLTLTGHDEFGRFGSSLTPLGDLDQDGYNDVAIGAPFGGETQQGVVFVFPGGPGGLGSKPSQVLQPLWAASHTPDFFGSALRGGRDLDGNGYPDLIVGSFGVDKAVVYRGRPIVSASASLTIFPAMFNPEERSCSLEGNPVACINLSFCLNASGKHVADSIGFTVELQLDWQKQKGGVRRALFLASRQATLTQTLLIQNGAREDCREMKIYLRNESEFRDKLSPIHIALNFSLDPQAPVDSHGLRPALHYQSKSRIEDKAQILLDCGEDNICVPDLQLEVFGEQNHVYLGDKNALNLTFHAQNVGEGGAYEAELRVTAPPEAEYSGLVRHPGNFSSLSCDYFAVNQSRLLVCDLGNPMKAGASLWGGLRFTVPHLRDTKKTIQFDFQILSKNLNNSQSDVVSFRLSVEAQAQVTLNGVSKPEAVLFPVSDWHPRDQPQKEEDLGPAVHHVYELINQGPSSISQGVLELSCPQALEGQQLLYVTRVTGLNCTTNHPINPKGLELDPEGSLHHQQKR
Chain of Integrin alpha-5/beta-1 (P08648 895-1049 limits assumed): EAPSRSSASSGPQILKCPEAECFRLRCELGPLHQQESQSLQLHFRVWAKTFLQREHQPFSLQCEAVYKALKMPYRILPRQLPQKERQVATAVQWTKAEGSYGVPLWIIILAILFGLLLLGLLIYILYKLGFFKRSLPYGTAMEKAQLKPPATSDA

Row | Compound | IC50 [1] [nM] | IC50 [2] [nM] | IC50 (Integrin alpha-5/beta-1) [nM]
1 | COC(=O)N1C[C@@]2(CC(C(=O)NC[C@H](NS(=O)(=O)c3c(C)cc(C)cc3C)C(=O)O)=NO2)C[C@H]1CNc1ncc[nH]1 | 57 | 7300 | 21
2 | COC(=O)N1C[C@@]2(CC(C(=O)NC[C@H](NS(=O)(=O)c3c(C)cc(C)cc3C)C(=O)O)=NO2)C[C@H]1CNc1nc2ccccc2[nH]1 | 34 | > 100000 | 1.4
3 | CCCCOC(=O)N1C[C@@]2(CC(C(=O)NC[C@H](NS(=O)(=O)c3c(C)cc(C)cc3C)C(=O)O)=NO2)C[C@H]1CNc1nc2ccccc2[nH]1 | 87 | – | 0.39
4 | Cc1cc(C)c(S(=O)(=O)N[C@@H](CNC(=O)C2=NO[C@]3(CN[C@H](CNc4ncc[nH]4)C3)C2)C(=O)O)c(C)c1 | 180 | 1400 | 230
5 | CCCCOC(=O)N1C[C@@]2(CC(C(=O)NC[C@H](NS(=O)(=O)c3c(C)cc(C)cc3C)C(=O)O)=NO2)C[C@H]1CNc1ncc[nH]1 | 130 | 11000 | 14

The remaining lines, values ahead:

Row | IC50 [1] [nM] | IC50 [2] [nM] | IC50 (Integrin alpha-5/beta-1) [nM] | Compound
6 | 74 | > 100000 | – | Cc1cc(C)c(S(=O)(=O)N[C@@H](CNC(=O)C2=NO[C@]3(C2)C[C@@H](CNc2nc4ccccc4[nH]2)N(C(=O)OCc2ccccc2)C3)C(=O)O)c(C)c1
7 | – | 7300 | 13 | Cc1cc(C)c(S(=O)(=O)N[C@@H](CNC(=O)C2=NO[C@]3(C2)C[C@@H](CNC2=NCCN2)N(C(=O)OCc2ccccc2)C3)C(=O)O)c(C)c1
8 | – | 9200 | 1200 | Cc1cc(C)c(S(=O)(=O)N[C@@H](CNC(=O)C2=NO[C@@]3(C2)C[C@@H](CNC2=NCCN2)N(C(=O)OCc2ccccc2)C3)C(=O)O)c(C)c1
9 | 32 | 5600 | 39 | Cc1cc(C)c(S(=O)(=O)N[C@@H](CNC(=O)C2=NO[C@]3(C2)C[C@@H](CNc2ncc[nH]2)N(C(=O)OCc2cccnc2)C3)C(=O)O)c(C)c1
10 | 41 | 34000 | 18 | Cc1cc(C)c(S(=O)(=O)N[C@@H](CNC(=O)C2=NO[C@]3(C2)C[C@@H](CNc2ncc[nH]2)N(C(=O)OCc2ccccc2)C3)C(=O)O)c(C)c1
11 | 49 | > 100000 | 0.18 | Cc1cc(C)c(S(=O)(=O)N[C@@H](CNC(=O)C2=NO[C@]3(C2)C[C@@H](CNc2ccccn2)N(C(=O)OCc2ccccc2)C3)C(=O)O)c(C)c1
